Tests used:
human TRPV1 [1] = target: T1, human TRPV1 (Homo sapiens (Human), UniProt Q8NER1); experiment: Capsaicin Activation Assay (intracellular Ca2+, FLIPR); type: cell-based; settings: recombinant HEK293 cells expressing hTRPV1, 50 nM capsaicin
Procedure: (Logan, Utah). Dulbecco's phosphate-buffered saline (D-PBS) (with 1 mg/mL glucose and 3.6 mg/l Na pyruvate, without phenol red), L-glutamine, hygromycin B, and Lipofectamine® were obtained from Life Technologies (Grand Island, N.Y.). G418 sulfate was obtained from Calbiochem-Novabiochem Corp. (San Diego, Calif.). […] (St. Louis, Mo.). […] The cDNA for human TRPV1 (hTRPV1) was isolated by reverse transcriptase-polymerase chain reaction (RT-PCR) from human small intestine poly A+ RNA supplied by Clontech (Palo Alto, Calif.) using primers designed surrounding the initiation and termination codons identical to the published sequences (Hayes et al. […] The resulting cDNA PCR products were subcloned into pCIneo mammalian expression vector (Promega) and fully sequenced using fluorescent dye-terminator reagents (Prism, PerkinElmer Applied Biosystems Division) and a PerkinElmer Applied Biosystems Model 373 DNA sequencer or Model 310 genetic analyzer. Expression plasmids encoding the hTRPV1 cDNA were transfected into HEK293 cells using Lipofectamine®. Forty-eight hours after transfection, the neomycin-resistant cells were selected with growth medium containing 800 μg/mL Geneticin (Life Technologies, formerly Gibco BRL). Surviving individual colonies were isolated and screened for TRPV1 activity. […] Compound stocks, 10 mM, were prepared in DMSO, and diluted serially across a 384-well plate using a Bravo BenchCel workstation (Agilent Technologies, Santa Clara, Calif.). […] On the day prior to the experiment, the recombinant HEK293 cells expressing human TRPV1 (hTRPV1) were removed from tissue culture flasks and plated in growth medium into black-walled clear-bottom 384-well Biocoat™ poly-D-lysine assay plates (BD Biosciences, Bedford, Mass.) using a Multidrop® dispenser (ThermoScientific, Waltham, Mass.). […] Molecular Devices, Sunnyvale, Calif.) was added to each well using the Multidrop® dispenser. […] Fluorescence readings were made at 1 to 5 second intervals over the course of the experimental run.

human TRPV1 [2] = target: T1, human TRPV1; experiment: Acid Activation Assay (pH 5.0, intracellular Ca2+, FLIPR); type: cell-based; settings: percentage of the maximal pH 5.0-induced response remaining; recombinant HEK293 hTRPV1 cells; maximum concentration tested 37.5 μM
Procedure: Dulbecco's modified Eagle's medium (DMEM) with 4.5 m g/mL D-glucose, fetal bovine serum, L-glutamine, and 2-morpholinoethanesulfonic acid (MES) were purchased from Sigma-Aldrich Co. (St. Louis, Mo.). Dulbecco's phosphate-buffered saline (DPBS) with Ca^2+, Mg^2+, and 1 mg/mL D-glucose (pH 7.4), Geneticin®, 0.25% trypsin-1 mM EDTA, and penicillin-streptomycin were purchased from Invitrogen Corp. (Carlsbad, Calif.). The FLIPR® Calcium 4 assay kit was purchased from Molecular Devices (Sunnyvale, Calif.).
The cDNA for human TRPV1 (hTRPV1) was isolated by reverse transcriptase-polymerase chain reaction (RT-PCR) from human small intestine poly A+ RNA supplied by Clontech (Palo Alto, Calif.) using primers designed surrounding the initiation and termination codons identical to the published sequences (Hayes et al. Pain 2000, 88, 205-215). The resulting cDNA PCR products were subcloned into pCIneo mammalian expression vector (Promega) and fully sequenced using fluorescent dye-terminator reagents (Prism, PerkinElmer Applied Biosystems Division) and a PerkinElmer Applied Biosystems Model 373 DNA sequencer or Model 310 genetic analyzer. Expression plasmids encoding the hTRPV1 cDNA were transfected into HEK293 cells using Lipofectamine®. Forty-eight hours after transfection, the neomycin-resistant cells were selected with growth medium containing 800 μg/mL Geneticin (Life Technologies, formerly Gibco BRL). Surviving individual colonies were isolated and screened for TRPV1 activity. Cells expressing recombinant TRPV1 were maintained at 37° C. in DMEM containing 4 mM L-glutamine, 300 μg/mL G418 (Calbiochem) and 10% fetal bovine serum under a humidified 5% CO2 atmosphere.
The functional activity of compounds at the TRPV1 receptor was determined by measurement of intracellular Ca^2+ levels ([Ca^2+]i) using the Fluorescence Imaging Plate Reader (FLIPR)TETRA®. All compounds were tested over a 12-point one-half-log concentration range with 37.5 μM being the maximum concentration tested. Compound stocks, 10 mM, were prepared in DMSO, and diluted serially across a 384-well plate using a Bravo BenchCel workstation (Agilent Technologies, Santa Clara, Calif.). On the day prior to the experiment, the recombinant HEK293 cells expressing human TRPV1 (hTRPV1) were removed from tissue culture flasks and plated in growth medium into black-walled clear-bottom 384-well Biocoat™ poly-D-lysine assay plates (BD Biosciences, Bedford, Mass.) using a Multidrop® dispenser (ThermoScientific, Waltham, Mass.). On the day of the experiment growth medium was removed, and the no-wash FLIPR® Calcium-4 dye (λEX=470-495 nm, λEM=515-575 nm) was added to each well using the Multidrop® dispenser. The plated cells were incubated for 90-120 min in the dark at 25° C. The test compounds dissolved in DMSO were then added to the plates using an Agilent Bravo workstation (Agilent Technologies Inc., Santa Clara, Calif.). Three minutes later, a pH 5.0 solution was added to each well. Reagents were delivered at a rate of 40 μL/sec, and the final assay volume was 80 μL. Acidic pH solutions were prepared by titration of DPBS/MES with 1 N HCl. The intensity of the fluorescence was captured and digitally transferred to an interfaced PC. The maximum peak measured for the concentration range tested was used to calculate the corresponding peak increase in fluorescence over baseline (relative fluorescence units) which was expressed as the percentage (max % remain) of the maximal pH 5.0-induced response.
Table 1 reports the percentage (max % remain) of the maximal pH 5.0-induced response measured for the compounds tested in the recombinant HEK293 cell assay. Most of the compounds tested inhibited calcium flux only partially following TRPV1 activation by the pH 5.0 solution.

T1 sequence (Q8NER1 whole entry): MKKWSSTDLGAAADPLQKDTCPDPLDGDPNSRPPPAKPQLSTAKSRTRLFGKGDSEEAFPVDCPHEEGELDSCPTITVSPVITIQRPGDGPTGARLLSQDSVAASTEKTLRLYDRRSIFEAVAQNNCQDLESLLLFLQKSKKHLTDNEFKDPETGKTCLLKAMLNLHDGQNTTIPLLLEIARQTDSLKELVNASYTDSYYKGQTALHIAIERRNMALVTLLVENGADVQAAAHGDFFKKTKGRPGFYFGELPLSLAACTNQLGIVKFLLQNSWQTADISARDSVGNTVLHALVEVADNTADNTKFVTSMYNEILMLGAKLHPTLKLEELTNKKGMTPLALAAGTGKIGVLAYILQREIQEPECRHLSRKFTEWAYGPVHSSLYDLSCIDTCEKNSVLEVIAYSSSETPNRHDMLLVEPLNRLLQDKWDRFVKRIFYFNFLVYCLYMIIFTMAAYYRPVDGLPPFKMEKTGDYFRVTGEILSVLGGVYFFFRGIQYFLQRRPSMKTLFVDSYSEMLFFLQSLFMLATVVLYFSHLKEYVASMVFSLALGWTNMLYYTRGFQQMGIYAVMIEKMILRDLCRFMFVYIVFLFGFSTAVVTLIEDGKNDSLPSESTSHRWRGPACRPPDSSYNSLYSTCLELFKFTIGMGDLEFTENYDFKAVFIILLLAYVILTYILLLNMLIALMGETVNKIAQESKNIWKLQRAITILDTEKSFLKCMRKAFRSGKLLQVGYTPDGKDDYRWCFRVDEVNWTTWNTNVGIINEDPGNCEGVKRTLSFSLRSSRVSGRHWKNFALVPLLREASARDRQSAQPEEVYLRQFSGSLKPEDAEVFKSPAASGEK

Compound	IC50 (human TRPV1 [1])	human TRPV1 H^+ (max % remain) (human TRPV1 [2])
CN1C(=O)NCc2c(NC(=O)N[C@@H]3CC4(CCCC4)Oc4ccccc43)cccc21 [Example 15, 1-[(4R)-3,4-dihydrospiro[chromene-2,1′-cyclopentan]-4-yl]-3-(1-methyl-2-oxo-1,2,3,4-tetrahydroquinazolin-5-yl)urea]	0.021 µM	40%
CN1Cc2ccc(NC(=O)N[C@@H]3CC(C)(C)Oc4c3cccc4C(F)(F)F)cc2NC1=O [Example 16, 1-[(4R)-2,2-dimethyl-8-(trifluoromethyl)-3,4-dihydro-2H-chromen-4-yl]-3-(3-methyl-2-oxo-1,2,3,4-tetrahydroquinazolin-7-yl)urea]	0.1 µM	53%
Cn1c(=O)ccc2c(NC(=O)N[C@@H]3CC(CF)(CF)Oc4c3ccc(Cl)c4F)cccc21 [Example 21, 1-[(4R)-7-chloro-8-fluoro-2,2-bis(fluoromethyl)-3,4-dihydro-2H-chromen-4-yl]-3-(1-methyl-2-oxo-1,2-dihydroquinolin-5-yl)urea]	0.026 µM	48%
Cn1c(=O)ccc2c(NC(=O)N[C@@H]3C[C@@](C)(C(F)(F)F)Oc4ccccc43)cccc21 [Example 25, 1-(1-methyl-2-oxo-1,2-dihydroquinolin-5-yl)-3-[(2S,4R)-2-methyl-2-(trifluoromethyl)-3,4-dihydro-2H-chromen-4-yl]urea]	0.018 µM	65%
Cn1c(=O)ccc2c(NC(=O)N[C@@H]3C[C@@](C)(C(F)F)Oc4ccccc43)cccc21 [Example 26, 1-[(2S,4R)-2-(difluoromethyl)-2-methyl-3,4-dihydro-2H-chromen-4-yl]-3-(1-methyl-2-oxo-1,2-dihydroquinolin-5-yl)urea]	0.025 µM	54%
O=C1COc2ccc(NC(=O)N[C@@H]3CC(CF)(CF)Oc4cc(Cl)ccc43)cc2N1 [Example 29, 1-[(4R)-7-chloro-2,2-bis(fluoromethyl)-3,4-dihydro-2H-chromen-4-yl]-3-(3-oxo-3,4-dihydro-2H-1,4-benzoxazin-6-yl)urea]	0.1 µM	93%
CC1(C)C[C@@H](NC(=O)Nc2ccc3c(c2)NC(=O)N(CCO)C3)c2cccc(F)c2O1 [Example 42, 1-[(4R)-8-fluoro-2,2-dimethyl-3,4-dihydro-2H-chromen-4-yl]-3-[3-(2-hydroxyethyl)-2-oxo-1,2,3,4-tetrahydroquinazolin-7-yl]urea]	0.51 µM	8%
CC1(C)C[C@@H](NC(=O)Nc2ccc3c(c2)NC(=O)N(CCO)C3)c2ccc(F)cc2O1 [Example 43, 1-[(4R)-7-fluoro-2,2-dimethyl-3,4-dihydro-2H-chromen-4-yl]-3-[3-(2-hydroxyethyl)-2-oxo-1,2,3,4-tetrahydroquinazolin-7-yl]urea]	0.094 µM	8%
CCC1(CC)C[C@@H](NC(=O)Nc2ccc3c(c2)NC(=O)N(CCO)C3)c2cccc(F)c2O1 [Example 44, 1-[(4R)-2,2-diethyl-8-fluoro-3,4-dihydro-2H-chromen-4-yl]-3-[3-(2-hydroxyethyl)-2-oxo-1,2,3,4-tetrahydroquinazolin-7-yl]urea]	0.065 µM	3%
CCC1(CC)C[C@@H](NC(=O)Nc2ccc3c(c2)NC(=O)N(CCO)C3)c2ccccc2O1 [Example 45, 1-[(4R)-2,2-diethyl-3,4-dihydro-2H-chromen-4-yl]-3-[3-(2-hydroxyethyl)-2-oxo-1,2,3,4-tetrahydroquinazolin-7-yl]urea]	0.043 µM	4%
CCC1(CC)C[C@@H](NC(=O)Nc2ccc3c(c2)NC(=O)N(CCO)C3)c2ccc(C(F)(F)F)cc2O1 [Example 46, 1-[(4R)-2,2-diethyl-7-(trifluoromethyl)-3,4-dihydro-2H-chromen-4-yl]-3-[3-(2-hydroxyethyl)-2-oxo-1,2,3,4-tetrahydroquinazolin-7-yl]urea]	0.367 µM	0%

The next lines start with the values.

IC50 (human TRPV1 [1])	human TRPV1 H^+ (max % remain) (human TRPV1 [2])	Compound
0.063 µM	23%	CN1C(=O)NCc2c(NC(=O)N[C@@H]3C[C@@](C)(CF)Oc4cc(Cl)ccc43)cccc21 [Example 14, 1-[(2S,4R)-7-chloro-2-(fluoromethyl)-2-methyl-3,4-dihydro-2H-chromen-4-yl]-3-(1-methyl-2-oxo-1,2,3,4-tetrahydroquinazolin-5-yl)urea]
0.058 µM	34%	Cn1c(=O)ccc2c(NC(=O)N[C@@H]3CC(CF)(CF)Oc4cc(Cl)ccc43)cccc21 [Example 20, 1-[(4R)-7-chloro-2,2-bis(fluoromethyl)-3,4-dihydro-2H-chromen-4-yl]-3-(1-methyl-2-oxo-1,2-dihydroquinolin-5-yl)urea]
0.015 µM	47%	Cn1c(=O)ccc2c(NC(=O)N[C@@H]3CC(C)(C)Oc4c3ccc(F)c4Cl)cccc21 [Example 22, 1-[(4R)-8-chloro-7-fluoro-2,2-dimethyl-3,4-dihydro-2H-chromen-4-yl]-3-(1-methyl-2-oxo-1,2-dihydroquinolin-5-yl)urea]
0.016 µM	50%	Cn1c(=O)ccc2c(NC(=O)N[C@@H]3CC(C)(C)Oc4cc(Cl)ccc43)cccc21 [Example 23, 1-[(4R)-7-chloro-2,2-dimethyl-3,4-dihydro-2H-chromen-4-yl]-3-(1-methyl-2-oxo-1,2-dihydroquinolin-5-yl)urea]
0.022 µM	38%	Cn1c(=O)ccc2c(NC(=O)N[C@@H]3C[C@](C)(CF)Oc4cc(Cl)ccc43)cccc21 [Example 40, 1-[(2R,4R)-7-chloro-2-(fluoromethyl)-2-methyl-3,4-dihydro-2H-chromen-4-yl]-3-(1-methyl-2-oxo-1,2-dihydroquinolin-5-yl)urea]
0.012 µM	74%	Cn1c(=O)ccc2c(NC(=O)N[C@@H]3C[C@@](C)(CF)Oc4cc(Cl)ccc43)cccc21 [Example 41, 1-[(2S,4R)-7-chloro-2-(fluoromethyl)-2-methyl-3,4-dihydro-2H-chromen-4-yl]-3-(1-methyl-2-oxo-1,2-dihydroquinolin-5-yl)urea]

— patent publication US8969325B2, “TRPV1 antagonists” (AbbVie Inc., priority 2011, dated 2015)
